# Assay results published in patent US11110195B2, “Esculentin 1a derivatives and uses thereof” (University of Houston System, priority 2013, dated 2021).
# Read-outs that look alike come from different tables or passages of the source. Residues, ends and D or L forms follow the SMILES beside them.
# How the values were obtained:
# [1] = test system: Pseudomonas aeruginosa; settings: Pseudomonas aeruginosa ATCC 27853, reference strain; cited from earlier work
# [2] = test system: TNF-α secretion from LPS-stimulated RAW264.7 macrophages; experiment: Anti-endotoxin activity: TNF-α release from LPS-stimulated macrophages (ELISA); type: cell-based, murine; settings: LPS 10 ng/ml, 4 hours
# Procedure: RAW264.7 cells were stimulated with LPS (10 ng/ml) derived from P. aeruginosa 10 in the presence of 1, 5, 10 and 20 μM Esc-1a(1-21)NH2 for 4 hours at 37° C. and 5% CO2. The percentage of inhibition of TNF-α release was normalized to that of macrophages stimulated with LPS without peptide (0% inhibition).
# Macrophages (Raw 264.7) were cultured overnight in 96-well plates (1×10^5 cells/well) in DMEM supplemented with 2 mM L-glutamine, 1 mM sodium pyruvate, non-essential amino acids (NEAA), and 10% FBS. The medium was then removed and replaced with fresh medium containing LPS (10 ng/ml final concentration) and the peptide at different concentrations. Cells were incubated at 37° C. for 4 h, after which the medium was collected and TNF-α concentration in the samples was evaluated using a mouse TNF-α enzyme-linked immunosorbant assay kit according to the manufacturer's protocol (ELISA, Biosource). Cells that were stimulated with LPS alone, and untreated cells served as controls. All experiments were done in triplicate.
# [3] = test system: Staphylococcus hominis; settings: Staphylococcus hominis n. 1 ME, clinical ocular isolate
# Procedure: (§1) To determine the minimum inhibitory concentration (MIC) of Esc-1a(1-21)NH2 that causes total inhibition of microbial growth against Pseudomonas aeruginosa and Staphylococcal strains, the following experiment (using P. aeruginosa ATCC 19660 as an example) was performed. MIC was determined using the 96 well micro-plate dilution assay. The test was performed in triplicate wells and Esc-1a(1-21)NH2 was serially diluted to give concentrations of 0.125 μM to 64 μM.
# (§2) Day 1: Picked a colony from a P. aeruginosa ATCC19660 streak plate, inoculated in to nutrient broth and incubated overnight at 37° C. with shaking (250 rpm) Day 2 Steps: Removed 100 μl of the bacterial suspension and inoculated into 50 ml of fresh broth. Incubated for 2.5 hours with vigorous shaking (250 rpm) at 37° C. to achieve mid-log phase growth. Centrifuged the 50 ml culture at 3100 g for 10 minutes; discarded supernatant and resuspended pellet in 2 ml Muller-Hinton broth (MHB). Adjusted the optical density (OD) of the bacterial culture to 0.2 at 620 nm (corresponds to ˜10^7 CFU/ml) and diluted to 2×10^6 CFU/ml using MHB media. Thawed an aliquot of the peptide on ice. Pipetted 90 μl of MHB into wells A1, B1 and C1 and 50 μl of MHB media into A2-C2 through A12-C12. Added 10 μl of Esc-1a(1-21)NH2 into wells A1, B1 and C1 and performed serial twofold dilutions of peptide in a volume of 50 μl from column 1 to column 10 (i.e. transferred 50 μl from A1, B1 and C1 to A2, B2 and C2 and so on till A10-C10). […] Pipetted 50 μl of the diluted P. aeruginosa ATCC 19660 in to each well using a multichannel pipette (final concentration was 1×10^5 bacteria in 100 μl volume). Wrapped the plate using parafilm to prevent evaporation and incubated in a shaker incubator (150 rpm) at 37° C. for 18-24 h.
# (§3) Day 3 Steps: Read the plate using the spectrophotometer at 590 nm after examining the plates visually for turbidity. Generated spot plates to check for bacterial growth by plating out the contents of the first 3 wells showing no visible growth of bacteria onto MHA plates. Plated dilutions in duplicate and incubated the plates at 37° C. for 18 hr.
# (§4) Day 4: Counted the number of colonies on the agar plates and plotted the data.
# [4] = test system: Staphylococcus aureus; settings: Staphylococcus aureus n. 6 ME, clinical ocular isolate
# Procedure: as §1, §2, §3, §4
# [5] = test system: Pseudomonas aeruginosa
# Procedure: as §1, §2, §3, §4
# [6] = test system: Staphylococcus epidermidis; settings: Staphylococcus epidermidis n. 21 (326) ME, clinical ocular isolate
# Procedure: as §1, §2, §3, §4
# [7] = test system: P. aeruginosa ATCC 27853; experiment: Bactericidal activity in the presence of reflex human tears; type: cell-based, Pseudomonas aeruginosa; settings: 10 μM or 20 μM peptide, 50% or 70% reflex tears
# Procedure: FIG. 3A: Bacterial cells were incubated with 10 μM or 20 μM peptide in the presence of 50% reflex tears induced by onion vapors and pooled from three consenting adult volunteers with a normal ocular surface. FIG. 3B: Bacteria were incubated with 20 μM peptide in the presence of 70% reflex tears. In both cases, aliquots were withdrawn for cell counting at different time intervals. Mean data, expressed as the percentage of bacteria killed by the peptide are shown.
# 2×10^6 CFU/ml P. aeruginosa (ATCC 27853) were incubated with 10μM or 20μM Esc-1a(1-21)NH2 in the presence of 50% (FIG. 3A) or 70% (FIG. 3B) human reflex tears and aliquots withdrawn, plated and counted after 30, 90 and 120 minutes (n=3).
smiles,measurement,setting,value
CC[C@H](C)[C@H](NC(=O)CN)C(=O)N[C@@H](Cc1ccccc1)C(=O)N[C@@H](CO)C(=O)N[C@@H](CCCCN)C(=O)N[C@@H](CC(C)C)C(=O)N[C@@H](C)C(=O)NCC(=O)N[C@@H](CCCCN)C(=O)N[C@@H](CCCCN)C(=O)N[C@H](C(=O)N[C@@H](CCCCN)C(=O)N[C@@H](CC(N)=O)C(=O)N[C@@H](CC(C)C)C(=O)N[C@@H](CC(C)C)C(=O)N[C@H](C(=O)N[C@@H](CO)C(=O)NCC(=O)N[C@@H](CC(C)C)C(=O)N[C@@H](CCCCN)C(=O)NCC(N)=O)[C@@H](C)CC)[C@@H](C)CC [Esc-1a(1-21)NH2] (H-GIFSKLAGKKIKNLLISGLKG-NH2; N-terminus assumed),MIC,[1],4 µM
same,inhibition of TNF-α secretion,[2]; 10 μM peptide,~80%
same,inhibition of TNF-α secretion,[2]; 20 μM peptide,~90%
same,MIC,[3],1 µM
same,MIC,[4],64 µM
same,MIC values range,[5]; P. aeruginosa clinical isolates,2 to 8 µM
same,MIC,"[5]; Pseudomonas aeruginosa 1 Rm, clinical ocular isolate",4 µM
same,MIC,"[5]; Pseudomonas aeruginosa ATCC 19660, reference strain",16 µM
same,MIC,"[5]; Pseudomonas aeruginosa R1, clinical ocular isolate",2 µM
same,MIC,"[5]; Pseudomonas aeruginosa n. 2 ME, clinical ocular isolate",8 µM
same,MIC,"[5]; Pseudomonas aeruginosa n. 3, clinical ocular isolate",8 µM
same,MIC,[6],8 µM
same,retention of activity in reflex tears,[7],activity was retained
